Assays:
HIS-TGFβR1 T204D = molecular target: T1, HIS-TGFβR1 T204D (Homo sapiens, UniProt P36897, T204D); assay: HTRF probe-displacement assay, HIS-TGFβR1 T204D; assay type: binding; settings: read-out: TGFβR1 (μM) IC50
T1 sequence (P36897 34-503 T204D): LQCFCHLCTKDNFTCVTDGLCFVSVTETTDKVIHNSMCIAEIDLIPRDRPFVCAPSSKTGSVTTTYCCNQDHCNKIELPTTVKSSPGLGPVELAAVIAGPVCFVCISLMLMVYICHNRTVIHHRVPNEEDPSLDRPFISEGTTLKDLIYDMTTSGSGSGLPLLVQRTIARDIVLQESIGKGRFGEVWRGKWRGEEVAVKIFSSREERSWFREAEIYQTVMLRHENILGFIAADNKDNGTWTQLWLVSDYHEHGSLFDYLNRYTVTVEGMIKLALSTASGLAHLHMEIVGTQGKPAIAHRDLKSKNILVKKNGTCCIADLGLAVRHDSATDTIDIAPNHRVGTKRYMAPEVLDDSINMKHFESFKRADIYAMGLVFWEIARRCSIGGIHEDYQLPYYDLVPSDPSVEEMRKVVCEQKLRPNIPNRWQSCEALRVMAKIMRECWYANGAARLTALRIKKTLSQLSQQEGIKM

HIS-TGFβR2 WT = HIS-TGFβR2 WT (Homo sapiens, UniProt P37173); assay: HTRF probe-displacement assay, HIS-TGFβR2 WT; assay type: binding
Sequence of HIS-TGFβR2 WT (P37173 23-567): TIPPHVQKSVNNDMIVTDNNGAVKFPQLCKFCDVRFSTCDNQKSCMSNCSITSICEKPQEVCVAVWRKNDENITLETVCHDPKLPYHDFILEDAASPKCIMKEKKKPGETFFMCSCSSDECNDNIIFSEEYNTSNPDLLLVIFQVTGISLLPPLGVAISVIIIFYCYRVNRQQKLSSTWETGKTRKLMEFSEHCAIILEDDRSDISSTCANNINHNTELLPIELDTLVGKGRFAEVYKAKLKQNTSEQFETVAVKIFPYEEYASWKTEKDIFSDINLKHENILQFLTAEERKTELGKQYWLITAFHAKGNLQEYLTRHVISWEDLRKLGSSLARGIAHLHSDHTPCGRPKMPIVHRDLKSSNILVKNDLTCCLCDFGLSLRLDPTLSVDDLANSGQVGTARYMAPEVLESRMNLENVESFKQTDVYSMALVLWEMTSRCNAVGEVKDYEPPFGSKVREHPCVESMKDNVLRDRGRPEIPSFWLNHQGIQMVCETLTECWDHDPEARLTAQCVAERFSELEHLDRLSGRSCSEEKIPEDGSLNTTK

| SMILES | IC50 (HIS-TGFβR1 T204D) [µM] | IC50 (HIS-TGFβR2 WT) [µM] |
| --- | --- | --- |
| CC(=O)Nc1cc(-c2[nH]c3cccnc3c2-c2cccc3ccncc23)ccn1 [Example 19, N-{4-[3-(Isoquinolin-8-yl)-1H-pyrrolo[3,2-b]pyridin-2-yl]pyridin-2-yl}acetamide] | 0.023 | 0.19 |
| CC(=O)Nc1cc(-c2[nH]c3c(C4CCOCC4)ccnc3c2-c2cccc(C)n2)ccn1 [Example 136, N-{4-[3-(6-Methylpyridin-2-yl)-7-(oxan-4-yl)-1H-pyrrolo[3,2-b]pyridin-2-yl]pyridin-2-yl}acetamide] | 0.006 | > 15 |
| CC(=O)Nc1cc(-c2[nH]c3cccnc3c2-c2cccc(Cl)n2)ccn1 [Example 3, N-{4-[3-(6-Chloropyridin-2-yl)-1H-pyrrolo[3,2-b]pyridin-2-yl]pyridin-2-yl}acetamide] | 0.001 | 0.089 |
| COc1ccc2[nH]c(-c3ccnc(NC(C)=O)c3)c(-c3cccc(Cl)n3)c2n1 [Example 77] | 0.033 | > 15 |
| C=Cc1ccnc2c(-c3cccc(C(F)F)n3)c(-c3ccnc(NC(C)=O)c3)[nH]c12 [Example 127, N-(4-{3-[6-(Difluoromethyl)pyridin-2-yl]-7-ethenyl-1H-pyrrolo[3,2-b]pyridin-2-yl}pyridin-2-yl)acetamide] | 0.001 | 6.65 |
| CC(=O)Nc1cc(-c2[nH]c3cccnc3c2-c2ccc(C#N)nc2)ccn1 [Example 12, N-{4-[3-(6-Cyanopyridin-3-yl)-1H-pyrrolo[3,2-b]pyridin-2-yl]pyridin-2-yl}acetamide] | 0.058 | 1.31 |
| CCOc1cnc2c(-c3ccc(OC)cn3)c(-c3ccnc(NC(C)=O)c3)[nH]c2c1 [Example 96, N-(4-(6-Ethoxy-3-(5-methoxypyridin-2-yl)-1H-pyrrolo[3,2-b]pyridin-2-yl)pyridin-2-yl)acetamide] | 0.001 | > 15 |
| CC(=O)Nc1cc(-c2[nH]c3cccnc3c2-c2nc(C)ccc2F)ccn1 [Example 107, N-(4-(3-(3-Fluoro-6-methylpyridin-2-yl)-1H-pyrrolo[3,2-b]pyridin-2-yl)pyridin-2-yl)acetamide] | 0.001 | 8.14 |
| COc1cnc2c(-c3cccc(C)n3)c(-c3ccnc(NC(=O)CN4CCN(CCO)CC4)c3)[nH]c2c1 [Example 122, 2-[4-(2-Hydroxyethyl)piperazin-1-yl]-N-{4-[6-methoxy-3-(6-methy 1pyridin-2-yl)-1H-pyrrolo[3,2-b]pyridin-2-yl]pyridin-2-yl}acetamide] | 0.001 | > 15 |
| CC(=O)Nc1cc(-c2[nH]c3cccnc3c2-c2ccc(Cl)nc2)ccn1 [Example 9, N-{4-[3-(6-Chloropyridin-3-yl)-1H-pyrrolo[3,2-b]pyridin-2-yl]pyridin-2-yl}acetamide] | 0.023 | 0.33 |
| COC(=O)c1cc(Cl)nc2c(-c3ccc(F)cn3)c(-c3ccnc(NC(C)=O)c3)[nH]c12 [Example 69, Methyl 5-chloro-2-(2-acetamidopyridin-4-yl)-3-(5-fluoropyridin-2-yl)-1H-pyrrolo[3,2-b]pyridine-7-carboxylate] | 0.76 | > 15 |
| COCCOc1cnc2c(-c3ccc(OC)cn3)c(-c3ccnc(NC(C)=O)c3)[nH]c2c1 [Example 95, N-(4-(6-(2-Methoxyethoxy)-3-(5-methoxypyridin-2-yl)-1H-pyrrolo[3,2-b]pyridin-2-yl)pyridin-2-yl)acetamide] | 0.002 | > 15 |
| CC(=O)Nc1cc(-c2[nH]c3cc(Cl)cnc3c2-c2cccc(Cl)n2)ccn1 [Example 41, N-{4-[3-(6-Chloropyridin-2-yl)-6-chloro-1H-pyrrolo[3,2-b]pyridin-2-yl]pyridin-2-yl}acetamide] | 0.002 | 0.13 |
| COc1cccc(-c2c(-c3ccnc(NC(C)=O)c3)[nH]c3cc(Cl)cnc23)n1 [Example 65, N-{4-[6-Chloro-3-(6-methoxypyridin-2-yl)-1H-pyrrolo[3,2-b]pyridin-2-yl]pyridin-2-yl}acetamide] | 0.01 | > 15 |
| CC(=O)Nc1cc(-c2[nH]c3cccnc3c2-c2cccc(C#N)n2)ccn1 [Example 15, N-{4-[3-(6-Cyanopyridin-2-yl)-1H-pyrrolo[3,2-b]pyridin-2-yl]pyridin-2-yl}acetamide] | 0.017 | 13.1 |

Other lines, results leading:

| IC50 (HIS-TGFβR1 T204D) [µM] | IC50 (HIS-TGFβR2 WT) [µM] | SMILES |
| --- | --- | --- |
| 0.0034 | > 15 | CC(=O)Nc1cc(-c2[nH]c3cccnc3c2-c2cccc(OC(F)F)n2)ccn1 [Example 174, N-(4-(3-(6-(Difluoromethoxy)pyridin-2-yl)-1H-pyrrolo[3,2-b]pyridin-2-yl)pyridin-2-yl)acetamide] |
| 0.0171 | > 15 | COc1ccc(-c2c(-c3ccnc(NC(C)=O)c3)[nH]c3cc(N4CCCC4)cnc23)nc1 [Example 167, N-(4-(3-(5-Methoxypyridin-2-yl)-6-(pyrrolidin-1-yl)-1H-pyrrolo[3,2-b]pyridin-2-yl)pyridin-2-yl)acetamide] |
| 0.0008 | 0.043 | CC(=O)Nc1cc(-c2[nH]c3cc(C)cnc3c2-c2nc(C)cs2)ccn1 [Example 223, N-(4-(6-Methyl-3-(4-methylthiazol-2-yl)-1H-pyrrolo[3,2-b]pyridin-2-yl)pyridin-2-yl)acetamide] |
| 0.005 | > 15 | CCN1CCN(CC(=O)Nc2cc(-c3[nH]c4cc(Cl)cnc4c3-c3ccc(OC)cn3)ccn2)CC1 [Example 251, N-(4-(6-Chloro-3-(5-methoxypyridin-2-yl)-1H-pyrrolo[3,2-b]pyridin-2-yl)pyridin-2-yl)-2-(4-ethylpiperazin-1-yl)acetamide] |
| 0.003 | ≥ 15 | O=C(CN1CCNCC1)Nc1cc(-c2[nH]c3cc(Cl)cnc3c2-c2ccc(F)cn2)ccn1 [Example 247, N-(4-(6-Chloro-3-(5-fluoropyridin-2-yl)-1H-pyrrolo[3,2-b]pyridin-2-yl)pyridin-2-yl)-2-(piperazin-1-yl)acetamide] |
| 0.007 | > 15 | COc1ccc(-c2c(-c3ccnc(NC(=O)CN4CCN(C)CC4)c3)[nH]c3cc(Cl)cnc23)nc1 [Example 249, N-(4-(6-Chloro-3-(5-methoxypyridin-2-yl)-1H-pyrrolo[3,2-b]pyridin-2-yl)pyridin-2-yl)-2-(4-methylpiperazin-1-yl)acetamide] |
| 0.065 | > 15 | CC(=O)Nc1cc(-c2[nH]c3cc(Cl)cnc3c2-c2ccc(OC(C)C)cn2)ccn1 [Example 254, N-(4-(6-Chloro-3-(5-isopropoxypyridin-2-yl)-1H-pyrrolo[3,2-b]pyridin-2-yl)pyridin-2-yl)acetamide] |
| 0.02 | > 15 | CCOc1cccc(-c2c(-c3ccnc(NC(C)=O)c3)[nH]c3cc(Cl)cnc23)n1 [Example 256, N-(4-(6-Chloro-3-(6-ethoxypyridin-2-yl)-1H-pyrrolo[3,2-b]pyridin-2-yl)pyridin-2-yl)acetamide] |
| 0.016 | > 15 | CNCc1cnc2c(-c3ccc(OC)cn3)c(-c3ccnc(NC(C)=O)c3)[nH]c2c1 [Example 293, N-(4-(3-(5-Methoxypyridin-2-yl)-6-((methylamino)methyl)-1H-pyrrolo[3,2-b]pyridin-2-yl)pyridin-2-yl)acetamide] |
| 0.0015 | 0.225 | CC(=O)Nc1cc(-c2[nH]c3cccnc3c2-c2ncc(C)s2)ccn1 [Example 202, N-(4-(3-(5-Methylthiazol-2-yl)-1H-pyrrolo[3,2-b]pyridin-2-yl)pyridin-2-yl)acetamide] |
| 0.11 | > 15 | COc1ccc(-c2c(-c3ccnc(NC(C)=O)c3)[nH]c3cccnc23)nc1Cl [Example 192, N-(4-(3-(6-Chloro-5-methoxypyridin-2-yl)-1H-pyrrolo[3,2-b]pyridin-2-yl)pyridin-2-yl)acetamide] |
| 0.0587 | 0.424 | CC(=O)Nc1cc(-c2[nH]c3cccnc3c2-c2cnn(C)c2)ccn1 [Example 187, N-(4-(3-(1-Methyl-1H-pyrazol-4-yl)-1H-pyrrolo[3,2-b]pyridin-2-yl)pyridin-2-yl)acetamide] |
| 0.002 | 1.12 | COc1ccc(-c2c(-c3ccnc(NC(=O)CN4CCOCC4)c3)[nH]c3cc(Cl)cnc23)cn1 [Example 290, N-(4-(6-Chloro-3-(6-methoxypyridin-3-yl)-1H-pyrrolo[3,2-b]pyridin-2-yl)pyridin-2-yl)-2-morpholinoacetamide] |
| 0.0006 | 0.725 | COc1cnc2c(-c3nc(C(F)F)cs3)c(-c3ccnc(NC(C)=O)c3)[nH]c2c1 [Example 227, N-(4-(3-(4-(Difluoromethyl)thiazol-2-yl)-6-methoxy-1H-pyrrolo[3,2-b]pyridin-2-yl)pyridin-2-yl)acetamide] |
| 0.004 | 1.05 | CC(=O)Nc1cc(-c2[nH]c3c(C(C)O)ccnc3c2-c2ccc(F)cn2)ccn1 (stereo not shown) [Example 265, N-(4-(3-(5-Fluoropyridin-2-yl)-7-(1-hydroxyethyl)-1H-pyrrolo[3,2-b]pyridin-2-yl)pyridin-2-yl)acetamide] |
| 0.0014 | 0.173 | CC(=O)Nc1cc(-c2[nH]c3c(CO)ccnc3c2-c2nc(C)cs2)ccn1 [Example 214, N-(4-(7-(hydroxymethyl)-3-(4-methylthiazol-2-yl)-1H-pyrrolo[3,2-b]pyridin-2-yl)pyridin-2-yl)acetamide] |
| 0.011 | 0.709 | CC(=O)Nc1cc(-c2[nH]c3c(CO)ccnc3c2-c2ccc(Cl)nc2)ccn1 [Example 278, N-(4-(3-(6-Chloropyridin-3-yl)-7-(hydroxymethyl)-1H-pyrrolo[3,2-b]pyridin-2-yl)pyridin-2-yl)acetamide] |
